Measurements from ChEMBL document CHEMBL6109109, “Fatty acid binding protein 5 inhibitors as novel anticancer agents against metastatic castration-resistant prostate cancer” (Bioorg Med Chem, 2025).

Key:
[1] = Cytotoxicity against human WI-38 cells assessed as reduction in cell viability measured after 72 hrs by MTT assay; format: toxicity, cell-based
[2] = Binding affinity to FABP5 (unknown origin); design: species or system Homo sapiens
[3] = Cytotoxicity against mouse RCap cells assessed as reduction in cell viability measured after 72 hrs by MTT assay; format: functional, cell-based
[4] = tested on: PC-3; test: Cytotoxicity against human PC-3 cells assessed as reduction in cell viability measured after 72 hrs by MTT assay; format: functional, cell-based; conditions: PC-3, 72 h

SMILES: Cn1cc(-c2ccc(-c3ccc4c(c3)OCO4)cc2OC(=O)[C@H]2[C@@H](c3ccccc3)[C@H](C(=O)O)[C@@H]2c2ccccc2)cn1
- IC50 at 72 h [1]: 24.1 µM
- Ki [2]: 0.29 µM
- IC50 [3]: 8.82 µM
- IC50 [4]: 9.66 µM

SMILES: O=C(O)[C@@H]1[C@@H](c2ccccc2)[C@H](C(=O)Oc2cccc3ccccc23)[C@H]1c1ccccc1
- IC50 [4]: 23.8 µM

SMILES: O=C(O)[C@H]1[C@H](c2ccccc2)[C@H](C(=O)Oc2cc(-c3ccc4c(c3)OCCO4)cc3c2OCCO3)[C@H]1c1ccccc1
- IC50 at 72 h [1]: 68.5 µM
- Ki [2]: 1.15 µM
- IC50 [3]: 13.5 µM
- IC50 [4]: 11.8 µM

SMILES: O=C(O)[C@H]1[C@H](c2ccccc2)[C@@H](C(=O)Oc2cc(-c3ccc4c(c3)OCO4)ccc2Br)[C@H]1c1ccccc1
- IC50 at 72 h [1]: 25.9 µM
- Ki [2]: 0.89 µM
- IC50 [3]: 9.98 µM
- IC50 [4]: 7.72 µM

SMILES: O=C(O)[C@H]1[C@H](c2ccccc2)[C@H](C(=O)Oc2ccccc2-c2ccccc2)[C@H]1c1ccccc1
- IC50 [4]: 16.2 µM

SMILES: COc1ccccc1[C@H]1[C@H](C(=O)O)[C@H](c2ccccc2OC)[C@H]1C(=O)Oc1cc(-c2ccccc2)ccc1CC#N
- IC50 at 72 h [1]: 24.4 µM
- Ki [2]: 0.81 µM
- IC50 [3]: 8.31 µM
- IC50 [4]: 7.31 µM

SMILES: COc1ccccc1[C@H]1[C@H](C(=O)O)[C@H](c2ccccc2OC)[C@@H]1C(=O)Oc1ccc(OC)c2ccccc12
- Ki [2]: 26.6 µM
- IC50 [4]: 19.6 µM

SMILES: O=C(O)[C@H]1[C@H](c2ccccc2)[C@H](C(=O)Oc2cc(-c3ccc4c(c3)OCO4)ccc2Br)[C@H]1c1ccccc1
- IC50 at 72 h [1]: 24.8 µM
- Ki [2]: 0.37 µM
- IC50 [3]: 14.8 µM
- IC50 [4]: 9.36 µM

SMILES: COc1ccccc1[C@H]1[C@H](C(=O)O)[C@H](c2ccccc2OC)[C@H]1C(=O)OCC1(F)c2ccccc2-c2ccccc21
- IC50 at 72 h [1]: 55.6 µM
- Ki [2]: 1.83 µM
- IC50 [3]: 13 µM
- IC50 [4]: 11.8 µM

SMILES: N#CCc1ccc(-c2ccccc2)cc1OC(=O)[C@H]1[C@@H](c2ccccc2)[C@H](C(=O)O)[C@@H]1c1ccccc1
- IC50 at 72 h [1]: 47.3 µM
- Ki [2]: 0.64 µM
- IC50 [3]: 22.4 µM
- IC50 [4]: 9.47 µM

SMILES: COc1ccccc1[C@H]1[C@H](C(=O)O)[C@H](c2ccccc2OC)[C@H]1C(=O)Oc1cc(-c2ccc(C#N)cc2)ccc1-c1ccccc1
- IC50 at 72 h [1]: > 100 µM
- Ki [2]: 0.62 µM
- IC50 [3]: 14.5 µM
- IC50 [4]: 4.82 µM

SMILES: N#CCc1ccc(-c2ccc3c(c2)OCO3)cc1OC(=O)[C@H]1[C@@H](c2ccccc2)[C@@H](C(=O)O)[C@@H]1c1ccccc1
- IC50 at 72 h [1]: 66.3 µM
- Ki [2]: 1.42 µM
- IC50 [4]: 12.8 µM

SMILES: C#Cc1ccc(-c2ccc3c(c2)OCO3)cc1OC(=O)[C@H]1[C@@H](c2ccccc2OC)[C@@H](C(=O)O)[C@@H]1c1ccccc1OC
- Ki [2]: 1.68 µM
- IC50 [4]: 21.8 µM

SMILES: N#CCc1ccc(-c2ccccc2)cc1OC(=O)[C@H]1[C@@H](c2ccccc2)[C@@H](C(=O)O)[C@@H]1c1ccccc1
- IC50 at 72 h [1]: 55.2 µM
- Ki [2]: 2.37 µM
- IC50 [3]: 30.1 µM
- IC50 [4]: 12.3 µM

SMILES: COc1ccccc1[C@H]1[C@H](C(=O)O)[C@H](c2ccccc2OC)[C@H]1C(=O)Oc1cccc(-c2ccc3c(c2)OCCO3)c1
- IC50 at 72 h [1]: 54.7 µM
- Ki [2]: 1.56 µM
- IC50 [3]: 12.5 µM
- IC50 [4]: 13 µM

SMILES: O=C1CCc2cc(-c3cccc(OC(=O)[C@H]4[C@@H](c5ccccc5)[C@@H](C(=O)O)[C@@H]4c4ccccc4)c3)ccc2N1
- IC50 at 72 h [1]: 77 µM
- Ki [2]: 7.59 µM
- IC50 [3]: 15.6 µM
- IC50 [4]: 13.1 µM

SMILES: O=C(O)[C@H]1[C@H](c2ccccc2)[C@H](C(=O)Oc2cccc(-c3ccc(O)c(O)c3)c2)[C@H]1c1ccccc1
- Ki [2]: 1.25 µM
- IC50 [4]: 52.9 µM

SMILES: C#Cc1ccc(-c2ccc3c(c2)OCO3)cc1OC(=O)[C@H]1[C@@H](c2ccccc2OC)[C@H](C(=O)O)[C@@H]1c1ccccc1OC
- IC50 at 72 h [1]: 72.1 µM
- Ki [2]: 1.21 µM
- IC50 [3]: 14.8 µM
- IC50 [4]: 11.4 µM

SMILES: COc1ccccc1[C@H]1[C@H](C(=O)O)[C@H](c2ccccc2OC)[C@H]1C(=O)Oc1cc(-c2ccc3c(c2)OCO3)ccc1CC#N
- IC50 at 72 h [1]: 29.8 µM
- Ki [2]: 0.58 µM
- IC50 [3]: 20.7 µM
- IC50 [4]: 12.5 µM

SMILES: O=C1Cc2ccc(-c3ccccc3OC(=O)[C@H]3[C@@H](c4ccccc4)[C@H](C(=O)O)[C@@H]3c3ccccc3)cc2N1
- Ki [2]: 0.29 µM
- IC50 [4]: 63.9 µM

SMILES: O=C(O)[C@H]1[C@H](c2ccccc2)[C@H](C(=O)OC2Cc3ccccc3C2)[C@H]1c1ccccc1
- IC50 [4]: 37.6 µM

SMILES: CC(=O)N1CC=C(c2cccc(OC(=O)[C@H]3[C@@H](c4ccccc4)[C@@H](C(=O)O)[C@@H]3c3ccccc3)c2)CC1
- Ki [2]: 28.9 µM
- IC50 [4]: 67.4 µM

SMILES: O=C(O)[C@H]1[C@H](c2ccccc2)[C@H](C(=O)Oc2cccc(-c3ccc4c(c3)OCCO4)c2)[C@H]1c1ccccc1
- IC50 at 72 h [1]: 66.5 µM
- Ki [2]: 0.66 µM
- IC50 [3]: 14.5 µM
- IC50 [4]: 13.1 µM

SMILES: O=C1Cc2cc(-c3cccc(OC(=O)[C@H]4[C@@H](c5ccccc5)[C@@H](C(=O)O)[C@@H]4c4ccccc4)c3)ccc2N1
- Ki [2]: 2.21 µM
- IC50 [4]: 20 µM

SMILES: Cn1cc(-c2ccc(-c3ccc4c(c3)OCO4)cc2OC(=O)[C@H]2[C@@H](c3ccccc3)[C@@H](C(=O)O)[C@@H]2c2ccccc2)cn1
- IC50 at 72 h [1]: 26.4 µM
- Ki [2]: 0.76 µM
- IC50 [3]: 6.16 µM
- IC50 [4]: 10.3 µM

SMILES: N#Cc1ccc(-c2ccc3c(c2)OCCO3)cc1OC(=O)[C@H]1[C@@H](c2ccccc2)[C@H](C(=O)O)[C@@H]1c1ccccc1
- Ki [2]: 0.64 µM
- IC50 [4]: 15.1 µM

SMILES: COc1ccccc1[C@H]1[C@H](C(=O)O)[C@H](c2ccccc2OC)[C@H]1C(=O)Oc1cccc(-c2ccc(O)c(O)c2)c1
- Ki [2]: 1.25 µM
- IC50 [4]: 40.1 µM

SMILES: O=C(O)[C@H]1[C@H](c2ccccc2)[C@@H](C(=O)Oc2cc(-c3ccc4c(c3)OCCO4)cc3c2OCCO3)[C@H]1c1ccccc1
- Ki [2]: 3.5 µM
- IC50 [4]: 20.7 µM

SMILES: COc1ccccc1[C@H]1[C@H](C(=O)O)[C@H](c2ccccc2OC)[C@H]1C(=O)Oc1cc(-c2ccc3c(c2)OCO3)ccc1-c1cnn(C)c1
- IC50 at 72 h [1]: 29.8 µM
- Ki [2]: 0.54 µM
- IC50 [3]: 7.94 µM
- IC50 [4]: 5.71 µM

SMILES: O=C(O)[C@H]1[C@H](c2ccccc2)[C@H](C(=O)Oc2ccc3cc(-c4cncnc4)ccc3c2)[C@H]1c1ccccc1
- IC50 at 72 h [1]: 91.9 µM
- IC50 [3]: 18.7 µM
- IC50 [4]: 12.1 µM

SMILES: COc1ccccc1[C@H]1[C@H](C(=O)O)[C@H](c2ccccc2OC)[C@H]1C(=O)Oc1cccc(-c2ccc3c(c2)NC(=O)C3)c1
- Ki [2]: 1.06 µM
- IC50 [4]: 16.2 µM

SMILES: O=C(O)[C@H]1[C@H](c2ccccc2)[C@H](C(=O)OCc2cccc3ccccc23)[C@H]1c1ccccc1
- Ki [2]: 2.64 µM
- IC50 [4]: 19.1 µM

SMILES: COc1ccccc1[C@H]1[C@H](C(=O)O)[C@H](c2ccccc2OC)[C@H]1C(=O)Oc1ccccc1-c1ccc2c(c1)OCCO2
- Ki [2]: 2.81 µM
- IC50 [4]: 17.8 µM

SMILES: O=C(O)[C@@H]1[C@@H](c2ccccc2)[C@H](C(=O)OCc2ccccc2-c2ccccc2)[C@H]1c1ccccc1
- Ki [2]: 1.65 µM
- IC50 [4]: 22.1 µM

SMILES: COc1ccccc1[C@H]1[C@H](C(=O)O)[C@H](c2ccccc2OC)[C@H]1C(=O)Oc1cc(-c2ccc(C#N)cc2)ccc1-c1cncnc1
- Ki [2]: 0.38 µM
- IC50 [4]: 14.9 µM

SMILES: O=C(O)[C@H]1[C@H](c2ccccc2)[C@H](C(=O)Oc2cccc(C3=CCOCC3)c2)[C@H]1c1ccccc1
- Ki [2]: 1.75 µM
- IC50 [4]: 52 µM

SMILES: COc1ccccc1[C@H]1[C@H](C(=O)O)[C@H](c2ccccc2OC)[C@@H]1C(=O)Oc1cccc2ccccc12
- IC50 [4]: 25.5 µM

SMILES: COc1ccccc1[C@H]1[C@H](C(=O)O)[C@H](c2ccccc2OC)[C@H]1C(=O)Oc1ccccc1-c1ccccc1
- Ki [2]: 1.59 µM
- IC50 [4]: 19.8 µM

SMILES: COc1ccccc1[C@H]1[C@H](C(=O)O)[C@H](c2ccccc2OC)[C@H]1C(=O)OC1Cc2ccccc2C1
- IC50 [4]: 16.5 µM

SMILES: O=C(O)[C@H]1[C@H](c2ccccc2)[C@@H](C(=O)Oc2cc(-c3ccc4c(c3)OCO4)ccc2-c2cncnc2)[C@H]1c1ccccc1
- IC50 at 72 h [1]: 31.5 µM
- IC50 [3]: 2.92 µM
- IC50 [4]: 5.88 µM

SMILES: COc1ccccc1[C@H]1[C@H](C(=O)O)[C@H](c2ccccc2OC)[C@H]1C(=O)Oc1ccccc1-c1ccc2c(c1)OCO2
- Ki [2]: 1.59 µM
- IC50 [4]: 19.9 µM

SMILES: N#CCc1ccc(-c2ccc3c(c2)OCO3)cc1OC(=O)[C@H]1[C@@H](c2ccccc2)[C@H](C(=O)O)[C@@H]1c1ccccc1
- IC50 at 72 h [1]: 46.3 µM
- Ki [2]: 0.64 µM
- IC50 [4]: 13 µM

SMILES: O=C(O)[C@H]1[C@H](c2ccccc2)[C@H](C(=O)Oc2cc(-c3ccc4c(c3)OCO4)ccc2-c2cncnc2)[C@H]1c1ccccc1
- IC50 at 72 h [1]: 95.5 µM
- IC50 [3]: 30.2 µM
- IC50 [4]: 12.5 µM

SMILES: N#Cc1ccc(-c2ccccc2OC(=O)[C@H]2[C@@H](c3ccccc3)[C@@H](C(=O)O)[C@@H]2c2ccccc2)cc1
- Ki [2]: 1.39 µM
- IC50 [4]: 20.5 µM
